Laboratory results from patent US9315678B2, “Affinity of hardly soluble or insoluble substance solvent by water-soluble xylan” (Ezaki Glico Co., Ltd., priority 2006, dated 2016).
Values belong to the compound of their own block, whether it stands above or below them.

Tests used:
Assay type in all cases: physicochemical
[1] = Carbon nanotube solubilizing capability of saccharide aqueous solutions (absorbance of supernatant at 500 nm); conditions: for amount of the solubilized carbon nanotube (in words): at the investigated concentrations of Table 1; for A500: about 4 mg SWCNT-1 per 1 mL, ultra sound 5 min
Procedure: (§1) The amount of the carbon nanotube dissolved in the solution can be measured, for example, by recovering the carbon nanotube by centrifugation at 70,000×g for 15 minutes and measuring the weight thereof. Alternatively, as described in the literature “Chem. Commun.”, P. 193 (2001), the concentration of the carbon nanotube has quite a high correlation with the absorbance at 500 nm, and the water-soluble xylan has almost no absorption at the wavelength. Thus, the concentration of the carbon nanotube is easily determined by measuring the absorbance of the solution at 500 nm, unless the solution contains any other substances having absorption at around 500 nm. In the case where a hardly soluble or insoluble substance is used as another substance, the method for measuring the concentration of the substance in the solution can be appropriately selected in depending on the substance.
A solubilizing capability of the water-soluble xylan was compared with those of other saccharides. As the water-soluble xylan, glucuronoxylan (manufactured by Institute of Chemistry, Slovak Academy of Sciences; the number average molecular weight: 18,000; xylose residue: 4-O-methyl-D-glucuronic acid reside=10:1; no acetylation) was used. For comparison, various saccharide solutions of amylose (the number average molecular weight of 2,900), pectin (derived from citrus fruit), polygalacturonic acid, methylcellulose, fucoidan, xanthan gum, carboxymethyl cellulose, an Abelmoschus manihot extraction liquid, a Hydrangea paniculata extraction liquid, gum arabic, β-1,3-glucan (schizophyllan, curdlan), and xylo-oligosaccarides (polymerization degrees of 2 and 5) were used.
To 1 mL of each of the saccharide aqueous solutions, about 4 mg of the single layer carbon nanotube powder (SWCNT-1 manufactured by Shenzhen Nanotech Port Co., Ltd.) was added and then stirred for about 10 seconds with a Vortex mixer. The mixture was applied ultra sound with a bath type sonicator (UT-205 manufactured by Sharp Corporation) at a room temperature (15° C. to 20° C.) for 5 minutes to dissolve the carbon nanotube. The obtained solution was centrifuged at 2,200×g for 10 minutes, and then the supernatant thereof was collected. The amount of the dissolved carbon nanotube was estimated by measuring the absorbance of the supernatant at 500 nm. The saccharides vary from one another in solubility to water.
Within the same concentration range, the absorbances at 500 nm of the solutions containing another saccharide were 3 or less.

[2] = Preparation of carbon nanotube solution with water-soluble xylan: absorbance at 500 nm and dissolved carbon nanotube
Procedure: as §1
As water-soluble xylan, glucuronoxylan (manufactured by Institute of Chemistry, Slovak Academy of Sciences; the number average molecular weight: 18,000; xylose residue: 4-O-methyl-D-glucuronic acid reside=10:1; no acetylation; derived from beech) was used. To 1 L of a 0.4 mg/mL glucuronoxylan aqueous solution, 2 g of a single-layer carbon nanotube powder (SWCNT-1 manufactured by Shenzhen Nanotech Port Co., Ltd.) was added, and then stirred with a magnetic stirrer. The mixture was sequentially applied ultra sound by an ultra sound dispersing machine (Model UH-600SR, HO-F36 flanged chip, RD-36 continuous holder; manufactured by SMT Co., Ltd.) at a room temperature (15° C. to 20° C.) for 130 minutes at a flow rate of 1 L/min to dissolve and disperse the carbon nanotube. The obtained solution was centrifuged at 2,200×g for 15 minutes, and then collected the supernatant. The supernatant was a blackish solution.
The obtained solution was centrifuged at 70,000×g for 10 minutes to collect the carbon nanotube as a precipitate. To the obtained precipitate, 50 mL of the aforementioned glucuronoxylan aqueous solution was added, and the carbon nanotube was dispersed by applying an ultra sound at a room temperature (15° C. to 20° C.) for 5 minutes with a bath type sonicator (Branson 1200).
To 10 L of the water-soluble xylan solution prepared by Preparative Example 1, 5 g of a single-layer carbon nanotube powder (SWCNT-1 manufactured by Shenzhen Nanotech Port Co., Ltd.) was added and then stirred. The mixture was sequentially applied ultra sound by an ultra sound dispersing machine (Model UH-600SR, HO-F36 flanged chip, RD-36 continuous holder; manufactured by SMT Co., Ltd.) at a room temperature (15° C. to 20° C.) for 90 minutes at a flow rate of 1 L/min to dissolve and disperse the carbon nanotube. The obtained solution was centrifuged at 2,200×g for 15 minutes, and then the supernatant was collected. […]

[3] = Carbon nanotube solubilizing capability of saccharide aqueous solutions (absorbance of supernatant at 500 nm); conditions: Example 2-2, FIG. 4; concentration dependency
[4] = saccharide 5 mg/mL (5.00), supernatant
[5] = saccharide 10.00 mg/mL, supernatant
[6] = saccharide 2.50 mg/mL, supernatant
[7] = saccharide 0.40 mg/mL, supernatant after 2,200xg 10 min
[8] = Example 1-1: 0.4 mg/mL glucuronoxylan, 2 g SWCNT-1 per 1 L, ultra sound 130 min, supernatant after 2,200xg 15 min
[9] = Example 1-1: 70,000xg precipitate re-dispersed in 50 mL glucuronoxylan solution, ultra sound 5 min
[10] = saccharide 1.00 mg/mL, supernatant
[11] = saccharide 2.00 mg/mL, supernatant

A500 [1, 4]: 0.02
A500 [1, 5]: 0.06
Compound: amylose

A500 [1, 7]: 0.02
Compound: curdlan

A500 [1, 10]: 0.73
A500 [1, 5]: 4.30
Compound: gum arabic
amount of the solubilized carbon nanotube (in words) [1]: close to that when using the water-soluble xylan

A500 [1, 10]: 0.16
A500 [1, 11]: 0.80
Compound: methylcellulose

The next lines start with the compound.

Compound: OC1OC[C@@H](O[C@@H]2OC[C@@H](O)[C@H](O)[C@H]2O)[C@H](O)[C@H]1O (stereo partly drawn)
amount of the solubilized carbon nanotube (in words) [1]: did not exhibit solubilization of carbon nanotube at all
A500 ([1]; saccharide 16 mg/mL, supernatant): 0.00

Compound: OC1OC[C@@H](O[C@@H]2OC[C@@H](O[C@@H]3OC[C@@H](O[C@@H]4OC[C@@H](O[C@@H]5OC[C@@H](O)[C@H](O)[C@H]5O)[C@H](O)[C@H]4O)[C@H](O)[C@H]3O)[C@H](O)[C@H]2O)[C@H](O)[C@H]1O (stereo partly drawn)
amount of the solubilized carbon nanotube (in words) [1]: did not exhibit solubilization of carbon nanotube at all
A500 [1, 4]: 0.00

Compound: carboxymethyl cellulose [Carboxy Methylcellulose]
amount of the solubilized carbon nanotube (in words) [1]: close to that when using the water-soluble xylan
A500 [1, 6]: 5.64
A500 [1, 5]: 2.37

Compound: fucoidan
amount of the solubilized carbon nanotube (in words) [1]: close to that when using the water-soluble xylan
A500 [1, 6]: 1.33
A500 [1, 5]: 6.80

Compound: glucuronoxylan [Water-soluble Xylan]
amount of the solubilized carbon nanotube (in words) [1]: largest
A500 [1, 7]: 10.70
absorbance at 500 nm [2, 8]: 7.57
carbon nanotube contained in solution [2, 8]: about 282 μg/mL
absorbance at 500 nm [2, 9]: 122
carbon nanotube contained in solution [2, 9]: about 4.5 mg/mL
saccharide concentration showing the maximum absorbance at 500 nm [3]: 0.2 mg/mL

Compound: pectin
amount of the solubilized carbon nanotube (in words) [1]: close to that when using the water-soluble xylan
A500 [1, 6]: 3.48
A500 [1, 5]: 6.28

Compound: polygalacturonic acid
amount of the solubilized carbon nanotube (in words) [1]: close to that when using the water-soluble xylan
A500 ([1]; saccharide 1.90 mg/mL, supernatant): 2.18
A500 ([1]; saccharide 2.70 mg/mL, supernatant): 5.26

Compound: schizophyllan
A500 ([1]; saccharide 0.20 mg/mL, supernatant): 0.12
A500 [1, 7]: 0.95

Compound: xanthan gum
amount of the solubilized carbon nanotube (in words) [1]: close to that when using the water-soluble xylan
A500 [1, 10]: 2.79
A500 [1, 11]: 6.91
